Reference: patent US5068064A, “N-substituted lauramides, their preparation and compositions in which they are present” (Sanofi, priority 1989, dated 1991)
Values after ≈ are worked out from the molar mass of the structure shown.

How the values were obtained:
[1] = system: Escherichia coli CIP 54127; test: Minimum bactericidal concentration, first method (30 min contact), E. coli; type: cell-based; details: CIP54127, 0.5 h, contact time 30 minutes
Source text: (§1) In the two methods, a bacterial inoculum is brought into contact with different dilutions of the product for a determined period of time.
(§2) When the contact period has ended, an aliquot of the mixture of bacterial suspension and product is taken and brought into contact with an agent for neutralizing the bacterial activity of the mixture, either in a solid medium or in a liquid medium. The bactericidal activity of the product, expressed either as a concentration or as a percentage of active principle, corresponds to an absence of bacterial growth.
(§3) The first method makes it possible to define a minimum bactericidal concentration (MBC) or minimum fungicidal concentration (MFC), expressed in μg/ml. The contact time between product and bacterial suspension is 30 minutes. The neutralizer is included in agar.
(§4) The CIP bacterial strains chosen for the study, which are available from the Institut Pasteur, are:
(§5) 3. Escherichia coli CIP 54127
(§6) The strains are maintained on Tryptic Soy Agar® (TSA) marketed by Difco.
(§7) After 24 hours of culture at 37° C., the microbial growth is harvested with the aid of glass beads and 10 ml of diluent containing 1 g of tryptone and 8.5 g of sodium chloride in 1000 ml of distilled water. The suspension formed is shaken and the percentage transmission of light at 620 nm is measured in a spectrophotometer:
(§8) The bacterial inoculum corresponds to a 1:20 dilution of this bacterial suspension.
(§9) Plates containing cupules receive different dilutions of the test product. These dilutions of the test product are brought into contact with the different bacterial suspensions using a multiple site inoculator. After a contact time of 30 minutes, aliquots are transferred with this inoculator to the surface of an agar medium (TSA) placed in Petri dishes containing an activity neutralizer, namely 20 g of lubrol W, 2.5 g of Tween 80, 2.5 g of sodium thiosulfate and 1% of egg yolk in 1000 ml of TSA (Difco). A control for the efficacy of the neutralizer is prepared for each test product by depositing an aliquot of the dilution of the test product on the surface of the culture medium. After drying, the corresponding inoculum is deposited in the same place. An inoculum control is prepared on agar medium with and without neutralizer. The results are read off after 48 hours of incubation at 37° C.
(§10) They indicate the minimum bactericidal concentrations (MBC) for strains 1, 2, 3 and 4 and the minimum fungicidal concentrations (MFC) for strain 5.

[2] = system: Enterococcus faecium CIP 5855; test: Minimum bactericidal concentration, first method (30 min contact), E. faecium; type: cell-based; details: CIP5855, 0.5 h, contact time 30 minutes
Source text: as §1, §2, §3, §4, §6, §7, §8, §9, §10

[3] = system: S. aureus, E. faecium, E. coli, P. aeruginosa, C. albicans, M. smegmatis; test: Second method, bactericidal and fungicidal activity over all strains (Table III); type: cell-based; details: contact time 5 minutes
Source text: as §1, §2
The second method makes it possible to define a percentage of bactericidal or fungicidal active principle by means of a simplified and automated adaptation of Afnor standards NF T 72-150 and NF T 72-170. In this method, the bactericidal activity of the product is determined with and without interfering substances. It is based on assessing the destruction of 99.99% of the initial bacteria by the product in 5 minutes. The interfering substances are of the protein type and are chosen for the actual conditions of application of this type of product. […]
The antifungal activity of the products according to the invention was also determined with and without interfering substances using the method described above. […]

[4] = system: Staphylococcus aureus CIP 53154; test: Minimum bactericidal concentration, first method (30 min contact), S. aureus; type: cell-based; details: CIP53154, 0.5 h, contact time 30 minutes
Source text: as §1, §2, §3, §4
(§11) 1. Staphylococcus aureus
as §6, §7, §8, §9, §10

[5] = system: Staphylococcus aureus CIP 53154; test: Percentage of bactericidal active principle, second method (5 min contact), S. aureus; type: cell-based; details: with proteins as interfering substances, destruction of 99.99%
Source text: as §1, §2
(§12) The second method makes it possible to define a percentage of bactericidal or fungicidal active principle by means of a simplified and automated adaptation of Afnor standards NF T 72-150 and NF T 72-170. In this method, the bactericidal activity of the product is determined with and without interfering substances. It is based on assessing the destruction of 99.99% of the initial bacteria by the product in 5 minutes. The interfering substances are of the protein type and are chosen for the actual conditions of application of this type of product. The contact time between product and bacterial suspension is 5 minutes, the neutralization step is 10 minutes and subculture is effected in a liquid medium.
(§13) The chosen bacterial strains are:
as §11, §6
(§14) The strains are harvested in a manner identical to the first method; these suspensions contain between 1.10^8 and 3.10^8 cells per milliliter. Appropriate dilutions make it possible to have a suspension containing 2 to 6.10^3 cells per milliliter.
(§15) The experiment is performed in microtiter plates; it comprises two steps. The first step, called the preliminary test, checks that the product is indeed neutralized. In the test proper, the different dilutions of the product are brought into contact with 2 to 6.10^3 cells per milliliter of the bacterial suspension in the second row of the microtiter plate. After a contact time of 5 minutes, an aliquot is transferred to the third row containing the neutralizer adapted to the product and to the strain. After a contact time of 10 minutes, aliquots are transferred to the last 5 rows containing Tryptic Soy Broth® (TSB) from Difco.
(§16) The interfering substances tested are a mixture of albumin and yeast extract. In the first row of the microplate, these proteins are brought into contact for 5 minutes with the different dilutions of the product. After this step, the same principle as above is applied: 5 minutes of contact with the germ, 10 minutes of contact with the neutralizer, transfer to TSB.

[6] = system: Mycobacterium smegmatis CIP 7326; test: Percentage of bactericidal active principle, second method (5 min contact), M. smegmatis; type: cell-based; details: with proteins as interfering substances, destruction of 99.99%
Source text: as §1, §2, §12, §13
5. Mycobacterium smegmatis
as §6, §14, §15, §16

[7] = system: Enterococcus faecium CIP 5855; test: Percentage of bactericidal active principle, second method (5 min contact), E. faecium; type: cell-based; details: destruction of 99.99%
Source text: as §1, §2, §12, §13, §6, §14, §15, §16

[8] = system: Pseudomonas aeruginosa CIP A22; test: Minimum bactericidal concentration, first method (30 min contact), P. aeruginosa; type: cell-based; details: CIPA22, 0.5 h, contact time 30 minutes
Source text: as §1, §2, §3, §4
4. Psuedomonas aeruginosa
as §6, §7, §8, §9, §10

[9] = system: Candida albicans CIP 1180; test: Percentage of fungicidal active principle, second method (5 min contact), C. albicans; type: cell-based
Source text: as §1, §2, §12, §15, §16
The antifungal activity of the products according to the invention was also determined with and without interfering substances using the method described above. The same strain was used as for the first technique, namely Candida albicans CIP 1180. It is harvested in an identical manner to that described in the first method.

[10] = system: Pseudomonas aeruginosa CIP A22; test: Percentage of bactericidal active principle, second method (5 min contact), P. aeruginosa; type: cell-based; details: destruction of 99.99%
Source text: as §1, §2, §12, §13
4. Pseudomonas aeruginosa
as §6, §14, §15, §16

[11] = system: Escherichia coli CIP 54127; test: Percentage of bactericidal active principle, second method (5 min contact), E. coli; type: cell-based; details: destruction of 99.99%
Source text: as §1, §2, §12, §13, §5, §6, §14, §15, §16

[12] = system: Candida albicans CIP 1180; test: Minimum fungicidal concentration, first method (30 min contact), C. albicans; type: cell-based; details: CIP1180, 0.5 h, contact time 30 minutes
Source text: as §1, §2, §3, §9
The antifungal activity of the products according to the invention was also determined using the method described above. A representative strain of yeast was selected for the study: Candida albicans CIP 1180 (strain 5).
This is maintained on Sabouraud's Dextrose Agar marketed by Difco. The technique is identical to that described for studying the antibacterial activity. After 48 hours of culture at 37° C., the microbial growth is harvested with the aid of glass beads and 5 ml of diluent containing 1 g of tryptone and 8.5 g of sodium chloride in 1000 ml of distilled water; a further 5 ml of the diluent are then added. This suspension gives a percentage transmission of light at 620 nm of 2 to 3% in a spectrophotometer.
The inoculum corresponds to a 1:10 dilution of this microbial suspension. A 1:100 dilution of this suspension, observed between slide and cover glass through a No. 40 microscope objective, must show 10 cells per field, which corresponds to 1,000,000 yeasts per ml.
as §10

[13] = Product solubility; details: water
[14] = Simple: without interfering substances
[15] = with proteins as interfering substances

solubility [13]: 18 mg/mL (≈ 66600 µM)
SMILES: CCCCCCCCCCCC(=O)NCCN(C)C [D1, reference compound]
MBC [1]: 50 µg/mL (≈ 185 µM) | MBC [2]: 50 µg/mL (≈ 185 µM) | Ranking of activities among the products [3]: the activities are the lowest | MBC [4]: 50 µg/mL (≈ 185 µM) | Bactericidal activity, results in percentage of active principle, S. aureus [5]: 0.5 percentage of active principle | Bactericidal activity, results in percentage of active principle, M. smegmatis [6]: > 0.5 percentage of active principle | Bactericidal activity, results in percentage of active principle, E. faecium [7, 14]: 0.01 percentage of active principle | Bactericidal activity, results in percentage of active principle, E. faecium [7, 15]: 0.1 percentage of active principle | MBC [8]: 50 µg/mL (≈ 185 µM) | Fungicidal activity, results in percentage of active principle, C. albicans [9, 14]: 0.1 percentage of active principle | Fungicidal activity, results in percentage of active principle, C. albicans [9, 15]: 0.5 percentage of active principle | Bactericidal activity, results in percentage of active principle, P. aeruginosa [10, 14]: 0.05 percentage of active principle | Bactericidal activity, results in percentage of active principle, P. aeruginosa [10, 15]: 0.5 percentage of active principle | Bactericidal activity, results in percentage of active principle, E. coli [11, 14]: 0.05 percentage of active principle | Bactericidal activity, results in percentage of active principle, E. coli [11, 15]: 0.1 percentage of active principle | MFC [12]: 200 µg/mL (≈ 739 µM)
